Test results: patent EP0638079B1, “DEAZAAMINOPTERINS FOR TREATMENT OF INFLAMMATION” (SRI INTERNATIONAL, priority 1992, dated 1993)

Key:
[1] = system: human liver cell line (Chang liver)
S. faecium = conditions: folate dependent bacteria; cited from earlier work
L. casei = conditions: folate dependent bacteria; cited from earlier work
DBA/1 mice = experiment: Type II collagen arthritis mouse model (visual inflammation, rear paw swelling); assay type: in vivo; conditions: for No Mice on day indicated (visual evidence of inflammation), Day 30 / No Mice on day indicated (visual evidence of inflammation), Day 37 / No Mice on day indicated (visual evidence of inflammation), Day 44 / Ave. thickness of rear paws (mm) over days 30-44, Treated: Table IIA; for No Mice on day indicated (visual evidence of inflammation), Day 30 / No Mice on day indicated (visual evidence of inflammation), Day 37 / No Mice on day indicated (visual evidence of inflammation), Day 44 / No mice affected on day indicated (visual evidence of inflammation), Day 30 / No mice affected on day indicated (visual evidence of inflammation), Day 37 / No mice affected on day indicated (visual evidence of inflammation), Day 44: affected mice/mice in group; for No Mice on day indicated (visual evidence of inflammation), Day 30: dose (mg/kg) per compound as in Dose column; for No Mice on day indicated (visual evidence of inflammation), Day 37 / No Mice on day indicated (visual evidence of inflammation), Day 44 / No mice affected on day indicated (visual evidence of inflammation), Day 30: dose per compound as in Dose column; for Ave. thickness of rear paws (mm) over days 30-44, Treated / Avg. thickness of rear paws (mm) over days 30-44, Treated: caliper; for Avg. thickness of rear paws (mm) over days 30-44, Treated / No mice affected on day indicated (visual evidence of inflammation), Day 30 / No mice affected on day indicated (visual evidence of inflammation), Day 37 / No mice affected on day indicated (visual evidence of inflammation), Day 44: Table IIB
Text: The following data illustrate administration to mice of several deazaaminopterin compounds of the invention and methotrexate in the evaluation of anti-inflammatory activity. The data are presented as two separate observations, the visually observed presence of inflammation in the mouse, and the caliper-measured degree of swelling of the rear paws of the mouse.
The efficacy evaluation used a mouse model of inflammatory disease that occurs in response to an antigenic challenge with Type II collagen [J. S. Courtenay et al., Nature, 283, 666-668 (1980)].
The fundamental aspects of the model allow it to serve as a representative presentation of human disease. The parallels between the known aspects of the mouse model and rheumatoid arthritis include a humoral response in which antibodies are produced to an antigen that is present in the joint tissue and the antigenic challenge is accompanied by cell-mediated aspects of immunity. The resultant inflammation of the joint tissue yields facets of periostitis, synovial lining hyperplasia, degradation of bone and cartilage and pannus and new bone formation.
The basic elements of the model included the immunization of DBA/1 mice with a suspension of fetal bovine Type II collagen (1 mg/ml) prepared in complete Freund's adjuvant. The primary injection was given using 0.1 ml of the collagen emulsion giving a total of 0.1 mg of Type II collagen per mouse. The animals were then given a booster injection of Type II collagen (100 µg in 0.01 M acetic acid ) on day 21 by intraperitoneal injection.
Typically, in this model the untreated positive control animals have an incidence of arthritis ranging from 90 to 100% of injected animals at day 44.
The effect of methotrexate and test compounds on the extent of inflammation was determined by direct analysis of paw swelling using caliper measurements. The results are presented in Table IIA, and show a direct correlation between the decrease in the number of animals having disease and a decrease in the extent of inflammation, as determined by paw swelling. Table IIA […]

[2] = target: T1, bovine liver dihydrofolate reductase (Bos taurus, UniProt P00376); conditions: cited from earlier work
T1 construct: host or cells: bovine liver
T1 sequence (P00376 1-187): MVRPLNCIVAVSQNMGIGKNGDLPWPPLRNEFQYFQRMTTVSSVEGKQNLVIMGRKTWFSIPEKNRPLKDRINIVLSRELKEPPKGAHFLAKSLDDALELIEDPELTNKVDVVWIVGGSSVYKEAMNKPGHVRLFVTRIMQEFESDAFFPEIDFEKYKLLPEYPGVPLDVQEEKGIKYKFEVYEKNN

P388 leukemia = conditions: against P388 leukemia in BDF1 mice; cited from earlier work
[3] = system: L1210 murine leukemia cells; conditions: cited from earlier work
L1210 = conditions: against L1210 in BDF1 mice; cited from earlier work
[4] = 30 day measurement (first value)
[5] = 44 day measurement (second value)

SMILES	Ratio Of Cytotoxic Potency Versus Methotrexate For Inhibition Of Human Liver Cell Growth In Culture [1]	No Mice on day indicated (visual evidence of inflammation), Day 30 (DBA/1 mice)	No Mice on day indicated (visual evidence of inflammation), Day 37 (DBA/1 mice)	No Mice on day indicated (visual evidence of inflammation), Day 44 (DBA/1 mice)	further results
Nc1nc(N)c2cc(CCc3ccc(C(=O)NC(CCC(=O)O)C(=O)O)cc3)cnc2n1 (stereo not drawn) [5,10-Dideazaaminopterin]	2.46				growth inhibition (S. faecium): effective growth inhibitor; growth inhibition (L. casei): effective growth inhibitor
CCc1c(CNc2ccc(C(=O)NC(CCC(=O)O)C(=O)O)cc2)cnc2nc(N)nc(N)c12 (stereo not drawn) [5-Et-10-H (5-Et-5-DA)]	4.50	2/8	5/8	2/8	
CCc1c(CN(C)c2ccc(C(=O)NC(CCC(=O)O)C(=O)O)cc2)cnc2nc(N)nc(N)c12 (stereo not drawn) [5-Et-10-Me (5-Et-5-DMTX)]	3.18	0/7	1/7	1/7	
C#CCN(Cc1cnc2nc(N)nc(N)c2c1)c1ccc(C(=O)NC(CCC(=O)O)C(=O)O)cc1 (stereo not drawn) [5-H-10-Propargyl (10-Prgl-5-DA), 10-propargyl-5-deazaaminopterin]	1.26	3/8	2/8	6/8	
C=CCN(Cc1cnc2nc(N)nc(N)c2c1C)c1ccc(C(=O)NC(CCC(=O)O)C(=O)O)cc1 (stereo not drawn) [5-Me-10-Allyl (5-Me-10-Allyl-5-DA)]		0/8	0/8	0/8	
Cc1c(CNc2ccc(C(=O)NC(CCC(=O)O)C(=O)O)cc2)cnc2nc(N)nc(N)c12 (stereo not drawn) [5-Me-10-H (5-Me-5-DA), 5-methyl-5-deazaaminopterin]	4.39		2/8	6/8	
Cc1c(CN(C)c2ccc(C(=O)NC(CCC(=O)O)C(=O)O)cc2)cnc2nc(N)nc(N)c12 (stereo not drawn) [5-Me-10-Me (5-Me-5-DMTX), 5-methyl-5-deazamethotrexate]	2.79	1/8	4/8	5/8	
C#CCN(Cc1cnc2nc(N)nc(N)c2c1C)c1ccc(C(=O)NC(CCC(=O)O)C(=O)O)cc1 (stereo not drawn) [5-Me-10-Propargyl (5-Me-10-Prgl-5-DA), 10-propargyl-5-methyl-5-deazaaminopterin]	21.18	3/8	3/8	2/8	Ave. thickness of rear paws (mm) over days 30-44, Treated (DBA/1 mice; 30 day measurement (first value in parentheses)): (2.29-2.29) mm; Ave. thickness of rear paws (mm) over days 30-44, Treated (DBA/1 mice; 44 day measurement (second value in parentheses)): (2.29-2.29) mm
CCCc1c(CNc2ccc(C(=O)N[C@@H](CCC(=O)O)C(=O)O)cc2)cnc2nc(N)nc(N)c12 [5-Pr-10-H (5-Pr-5-DA), N-[4-[[(2,4-Diamino-5-propylpyrido[2,3-d]pyrimidin-6-yl)methyl]amino]benzoyl]-L-glutamic Acid]	1.78	0/7	0/7	0/7	
CC(Cc1cnc2nc(N)nc(N)c2c1)c1ccc(C(=O)NC(CCC(=O)O)C(=O)O)cc1 (stereo not drawn) [10-Me-5,10-Dideazaaminopterin]	2.69				
CCCCc1c(CNc2ccc(C(=O)N[C@@H](CCC(=O)O)C(=O)O)cc2)cnc2nc(N)nc(N)c12 [Compound 5-Bu-10-NH]	7.20				
Cc1c(CNc2ccc(C(=O)N[C@@H](CCC(=O)O)C(=O)O)s2)cnc2nc(N)nc(N)c12 [Example B', N-[5-[[(2,4-Diamino-5-methylpyrido[2,3-d]pyrimidin-6-yl)methyl]amino]thiophene-2-carbonyl]-L-glutamic Acid]					Avg. thickness of rear paws (mm) over days 30-44, Treated (DBA/1 mice; [4]): 2.19 mm; Avg. thickness of rear paws (mm) over days 30-44, Treated (DBA/1 mice; [5]): 2.33 mm; No mice affected on day indicated (visual evidence of inflammation), Day 30 (DBA/1 mice): 0/5; No mice affected on day indicated (visual evidence of inflammation), Day 37 (DBA/1 mice): 2/5; No mice affected on day indicated (visual evidence of inflammation), Day 44 (DBA/1 mice): 2/5
Cc1c(CN(C)c2ccc(C(=O)N[C@@H](CCC(=O)O)C(=O)O)s2)cnc2nc(N)nc(N)c12 [Example C', N-[5-[[(2,4-Diamino-5-methylpyrido[2,3-d]pyrimidin-6-yl)methyl]methylamino]thiophene-2-carbonyl]-L-glutamic Acid]					Avg. thickness of rear paws (mm) over days 30-44, Treated (DBA/1 mice; [4]): 2.13 mm; Avg. thickness of rear paws (mm) over days 30-44, Treated (DBA/1 mice; [5]): 2.27 mm; No mice affected on day indicated (visual evidence of inflammation), Day 30 (DBA/1 mice): 0/8; No mice affected on day indicated (visual evidence of inflammation), Day 37 (DBA/1 mice): 1/8; No mice affected on day indicated (visual evidence of inflammation), Day 44 (DBA/1 mice): 3/8
CCc1c(CN(C)c2ccc(C(=O)N[C@@H](CCC(=O)O)C(=O)O)s2)cnc2nc(N)nc(N)c12 [Example D', N-[5-[[(2A-Diamino-5-ethylpyrido[2,3d] -pyrimidin-6-yl)methyl]methylamino]thiophene-2-carbonyl]-L-glutamic Acid]					Avg. thickness of rear paws (mm) over days 30-44, Treated (DBA/1 mice; [4]): 2.13 mm; Avg. thickness of rear paws (mm) over days 30-44, Treated (DBA/1 mice; [5]): 2.32 mm; No mice affected on day indicated (visual evidence of inflammation), Day 30 (DBA/1 mice): 2/8; No mice affected on day indicated (visual evidence of inflammation), Day 37 (DBA/1 mice): 4/8; No mice affected on day indicated (visual evidence of inflammation), Day 44 (DBA/1 mice): 7/8
Nc1nc(N)c2cc(CNc3ccc(C(=O)N[C@@H](CCC(=O)O)C(=O)O)cc3)cnc2n1 [L-5-deazaaminopterin]					potency as inhibitor compared with methotrexate [2]: equipotent with methotrexate; in vivo potency compared with methotrexate (P388 leukemia): equipotent with methotrexate; potency as inhibitor compared with methotrexate [3]: equipotent with methotrexate; in vivo potency compared with methotrexate (L1210): equipotent with methotrexate
CN(Cc1cnc2nc(N)nc(N)c2n1)c1ccc(C(=O)N[C@@H](CCC(=O)O)C(=O)O)cc1 [MTX, methotrexate, reference compound]	1.00	1/22	1/22	6/22	Avg. thickness of rear paws (mm) over days 30-44, Treated (DBA/1 mice; [4]): 2.128 mm; Avg. thickness of rear paws (mm) over days 30-44, Treated (DBA/1 mice; [5]): 2.34 mm; No mice affected on day indicated (visual evidence of inflammation), Day 30 (DBA/1 mice): 1/22; No mice affected on day indicated (visual evidence of inflammation), Day 37 (DBA/1 mice): 1/22; No mice affected on day indicated (visual evidence of inflammation), Day 44 (DBA/1 mice): 6/22; effectiveness of prophylactic regimen (DBA/1 mice; drug begun two days prior to administration of antigen versus starting drug at day 19): more effective than starting drug at day 19
